# In ChEMBL document CHEMBL1201862, “PubChem BioAssay data set” (2004):
# Calls of active or inactive are those of the source. Unless noted, the calls are words filed in the database; no cut-off is given here.
# Key:
# [1] = target: 1-phosphatidylinositol 4,5-bisphosphate phosphodiesterase gamma-1 (Homo sapiens, UniProt P19174); assay: Counterscreen for inhibitors of phospholipase C isozymes (PLC-B3): Fluorescence-based biochemical high throughput dose response assay to identify inhibitors of phospholipase C isozymes (PLC-gamma1).
# [2] = target: 1-phosphatidylinositol 4,5-bisphosphate phosphodiesterase beta-3 (Homo sapiens, UniProt Q01970); assay: Fluorescence-based biochemical high throughput dose response assay to identify inhibitors of phospholipase C isozymes (PLC-B3).
# fMet-Leu-Phe receptor = fMet-Leu-Phe receptor (Homo sapiens, UniProt P21462); assay: FPR ligands, dose response (AID 519); assay type: functional
# [3] = Artemis endonuclease inhibitor potency, dose response, biochemical, fluorescence intensity (AID 720701); assay type: functional;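 further: Artemis endonuclease enzyme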
# [4] = IGROV1 ovarian cancer cell cytotoxicity, dose response, PAX8 inhibitor project, plate reader, dry powder samples (AID 743043); assay type: functional, cell-based; conditions: IGROV-1
# [5] = cytotoxicity in OVCAR4 cells, dose response, cytotoxicity control for PAX8 inhibitor project, cell-based, plate reader, dry powder, SA11 (AID 743150); assay type: functional; conditions: OVCAR-4
# BJ [6] = assay: cytotoxicity toward BJ-TERT-LT-ST fibroblasts, dose response, cell-based, RAS-independent, luminescence (AID 1935); assay type: functional; conditions: Homo sapiens;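 further: BJ fibroblasts immortalized with TERT plus LT and ST oncogenes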
# [7] = IOSE-T80 ovarian epithelial cell cytotoxicity, dose response, cytotoxicity control for PAX8 inhibitor project, plate reader, dry powder samples (AID 743045); assay type: functional, cell-based
# [8] = A2780 ovarian cancer cell cytotoxicity, dose response, cytotoxicity control, plate reader, dry powder samples (AID 743046); assay type: functional, cell-based
# [9] = Shn3 3'UTR reporter inhibitors, dose response, cell-based, Clone20 osteoblasts, firefly luciferase, cherry-picked (AID 624132); assay type: functional;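 further: firefly luciferase luminescence from reporter carrying the Shn3 3'UTR in osteoblasts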
# [10] = cytotoxicity in COV434 cells, dose response, cytotoxicity control for PAX8 inhibitor project, cell-based, plate reader, dry powder, SA7 (AID 743145); assay type: functional
# BJ [11] = assay: cells; assay type: functional, cell-based; conditions: Homo sapiens
# [12] = cytotoxicity toward DRD oncogenic fibroblasts, dose response, cell-based, non-viral oncogenic, luminescence (AID 1934); assay type: functional; conditions: Homo sapiens
# [13] = cytotoxicity in HEK-293T cells, dose response, cytotoxicity control for TCR NF-kB inhibitor project, luminescence, T-cell screen hits (AID 489026); assay type: functional, cell-based;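 further: cells exposed to compound about 14 hours before the viability readout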
# [14] = cytotoxicity in OV-90 ovarian cancer cells, dose response, PAX8 inhibitor project, cell-based, plate reader, dry powder, SA8 (AID 743149); assay type: functional
# [15] = cytotoxicity dependent on PAX8, dose response, cell-based, plate reader, dry powder (AID 743049); assay type: functional
# [16] = control 3'UTR Renilla luciferase suppression, dose response, counter-screen for Shn3 inhibitor project, cell-based, Clone20-Shn3RL, cherry-picked (AID 624133); assay type: functional
# Paired box protein Pax-8 = Paired box protein Pax-8 (Homo sapiens, UniProt Q06710); assay: inhibitors of PAX8-driven TPO luciferase reporter, dose response, RMG-I cells, cherry-pick (AID 687027); assay type: functional, cell-based;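 further: luciferase reporter driven by Pax8 target thyroperoxidase promoter measured by SteadyGlo luminescence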
# [17] = NIH:OVCAR-3 ovarian cancer cell cytotoxicity, dose response, PAX8 inhibitor project, plate reader, dry powder samples (AID 743044); assay type: functional, cell-based
# BJ [18] = assay: cytotoxicity toward BJ-TERT fibroblasts, dose response, cell-based, RAS-independent, luminescence (AID 1933); assay type: functional; conditions: Homo sapiens
# [19] = target: T1, Heat shock factor protein 1 (Mus musculus, UniProt P38532); assay: inhibition of MG132-induced HSE-luciferase signal, confirmation, cell-based, NIH3T3, luminescence, dose retest (AID 2382); assay type: functional;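 further: NIH3T3 fibroblasts with HSF1-driven luciferase reporter stressed by proteasome inhibitor MG132; luminescence from HSF1-driven luciferase expression after 8 hours of MG132 stress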
# T1 sequence (P38532 whole entry): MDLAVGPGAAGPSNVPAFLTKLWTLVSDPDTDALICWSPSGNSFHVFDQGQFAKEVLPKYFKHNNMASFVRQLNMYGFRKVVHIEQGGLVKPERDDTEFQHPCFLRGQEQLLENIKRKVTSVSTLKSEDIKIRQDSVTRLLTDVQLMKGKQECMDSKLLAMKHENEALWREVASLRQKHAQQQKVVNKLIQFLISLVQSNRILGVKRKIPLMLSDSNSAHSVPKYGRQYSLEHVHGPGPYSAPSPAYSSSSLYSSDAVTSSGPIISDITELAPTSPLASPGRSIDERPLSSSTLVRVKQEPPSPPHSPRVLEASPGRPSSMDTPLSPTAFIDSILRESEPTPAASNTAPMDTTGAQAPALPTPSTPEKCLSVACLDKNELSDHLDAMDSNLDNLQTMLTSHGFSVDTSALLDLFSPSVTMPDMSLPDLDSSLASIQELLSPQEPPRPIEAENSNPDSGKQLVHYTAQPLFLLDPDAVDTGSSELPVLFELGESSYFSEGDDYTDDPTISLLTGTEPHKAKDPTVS
# [20] = PAX2 cell-based inhibition, dose response, selectivity assay for PAX8 inhibitor project, plate reader, dry powder samples (AID 743048); assay type: functional;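 further: HEK293 cells carrying a WT1 promoter luciferase reporter driven by expressed Pax2; potency is for inhibition of Pax2 driven reporter signal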
# BJ [21] = assay: cytotoxicity toward Ras-transformed BJeLR fibroblasts, dose response, cell-based, alamar blue fluorescence, cherrypicked samples (AID 2631); assay type: functional; conditions: Homo sapiens;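 further: confirmatory dose-response assay in RAS-dependent BJ fibroblasts engineered with TERT, LT and ST, with cytotoxicity read by fluorescence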
# [22] = PAX5 activity inhibitors, dose response, selectivity assay for PAX8 inhibitor project, cell-based, plate reader, dry powder samples (AID 743047); assay type: functional;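 further: HEK293 cells carrying a Pax5 driven CD19 promoter luciferase reporter; potency of inhibitors that lower reporter luminescence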
# [23] = cytotoxicity in COV362 ovarian cancer cells, dose response, cytotoxicity control for PAX8 inhibitor project, cell-based, plate reader, dry powder, SA12 (AID 743144); assay type: functional
# [24] = inhibitors of PGC1a acetylation in cells, dose response, cell-based, cherry-picked samples (AID 720514); assay type: functional;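 further: potency may reflect raised or lowered acetylation signal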
# [25] = Luminescence-based cell-based high throughput dose response assay to identify activators of the DAF-12 from the parasite S. stercoralis (ssDAF-12).; assay type: functional
# [26] = target: T2, Oxysterols receptor LXR-beta (Homo sapiens, UniProt P55055); assay: LXR agonists, Gal4 luciferase reporter, dose response, counter-screen for ssDAF-12 agonist project, cell-based, luminescence, HEK293, S. stercoralis campaign (AID 720737); assay type: functional; conditions: read-out: IC50 (the source's name)
# T2 sequence (P55055 whole entry): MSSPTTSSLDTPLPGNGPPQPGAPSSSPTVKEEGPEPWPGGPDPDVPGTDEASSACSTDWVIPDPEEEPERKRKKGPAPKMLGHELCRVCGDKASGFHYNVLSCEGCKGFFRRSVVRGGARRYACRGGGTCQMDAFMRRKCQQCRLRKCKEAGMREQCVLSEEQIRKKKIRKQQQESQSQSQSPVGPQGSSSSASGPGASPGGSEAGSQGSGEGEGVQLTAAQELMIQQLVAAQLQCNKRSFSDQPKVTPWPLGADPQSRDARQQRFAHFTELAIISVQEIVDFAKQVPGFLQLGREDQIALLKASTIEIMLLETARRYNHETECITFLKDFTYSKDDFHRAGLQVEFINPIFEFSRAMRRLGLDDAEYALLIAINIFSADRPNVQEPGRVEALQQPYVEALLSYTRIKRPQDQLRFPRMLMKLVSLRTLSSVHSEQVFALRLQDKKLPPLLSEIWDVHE
# [27] = intracellular Trypanosoma cruzi inhibitors in host cells – cell-based, plate reader, cherry-pick samples, set 3, dose response (AID 651818); assay type: functional;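 further: compounds incubated with infected cells for about four days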
# [28] = cytotoxicity in A549 cells, dose response, cytotoxicity control, cell-based, cherry-picked samples (AID 1053184); assay type: functional
# [29] = cytotoxicity in HepG2 cells, dose response, cytotoxicity control, cell-based, cherry-picked samples (AID 1053183); assay type: functional
# [30] = cytotoxicity in HEK293 cells, dose response, cytotoxicity control, cell-based, cherry-picked samples (AID 1053185); assay type: functional
# [31] = CCRF-CEM leukemia cell viability loss, dose response, HRAS target identification, CellTiter-Glo ATP luminescence, 8/24/48 h, dry powder (AID 720607); assay type: functional, cell-based
# [32] = HeLa cell viability over time, late-stage follow-up, mechanism study for HRAS target identification, CellTiter-Glo ATP luminescence, 8-48 h, dry powder (AID 720609); assay type: functional, cell-based
# [33] = SR lymphoma cell viability over time, late-stage follow-up, mechanism study for HRAS target identification, CellTiter-Glo ATP luminescence, 8-48 h, dry powder (AID 720608); assay type: functional, cell-based
# [34] = SNB-19 glioblastoma cell viability loss, dose response, HRAS target identification, Alamar Blue fluorescence, 8/24/48 h, dry powder (AID 720600); assay type: functional, cell-based
# [35] = SNB-75 astrocytoma cell viability loss, late-stage follow-up, mechanism study for HRAS target identification, CellTiter-Glo ATP luminescence, several timepoints, dry powder (AID 720624); assay type: functional, cell-based
# [36] = HUVEC endothelial cell viability loss, dose response, cytotoxicity control for HRAS target identification, CellTiter-Glo ATP luminescence, 8/24/48 h, dry powder (AID 720604); assay type: functional, cell-based
# [37] = C2C12 myoblast ATP-based viability loss, dose response, cytotoxicity control for HRAS target identification, cell-based, CellTiter-Glo ATP luminescence, 8/24/48 h, dry powder (AID 720603); assay type: functional
# [38] = SNB-19 glioblastoma cell viability over time, late-stage follow-up, mechanism study for HRAS target identification, CellTiter-Glo ATP luminescence, 8-48 h, dry powder (AID 720611); assay type: functional, cell-based
# [39] = U-251 glioblastoma cell viability loss, late-stage follow-up, mechanism study for HRAS target identification, CellTiter-Glo ATP luminescence, several timepoints, dry powder (AID 720616); assay type: functional, cell-based
# [40] = HT-29 colorectal cell cytotoxicity over time, dose response, HRas target identification project, CellTiter-Glo, multiple timepoints, dry powder (AID 720598); assay type: functional, cell-based
# [41] = LOX IMVI melanoma cell viability loss, dose response, HRAS target identification, CellTiter-Glo ATP luminescence, 8/24/48 h, dry powder (AID 720602); assay type: functional, cell-based
# [42] = Late stage assay provider results from the probe development effort to identify inhibitors of the Plasmodium falciparum M18 Aspartyl Aminopeptidase (M18AAP): radiolabel-based cell-based dose response assay to identify compounds that inhibit P. falciparum growth in RBCs, Set 2..; assay type: functional
# Kallikrein-7 = Kallikrein-7 (Homo sapiens, UniProt P49862); assay: Fluorescence Intensity-based biochemical primary high throughput dose response assay to identify activators of kallikrein-7 (K7) zymogen.
# [43] = target: Potassium channel subfamily K member 3 (Homo sapiens, UniProt O14649); assay: TASK1 (KCNK3) potassium channel inhibitors, SAR follow-up, CHO cells, FluxOR thallium flux (AID 652212); assay type: functional
# Potassium channel subfamily K member 3, sequence (O14649 whole entry): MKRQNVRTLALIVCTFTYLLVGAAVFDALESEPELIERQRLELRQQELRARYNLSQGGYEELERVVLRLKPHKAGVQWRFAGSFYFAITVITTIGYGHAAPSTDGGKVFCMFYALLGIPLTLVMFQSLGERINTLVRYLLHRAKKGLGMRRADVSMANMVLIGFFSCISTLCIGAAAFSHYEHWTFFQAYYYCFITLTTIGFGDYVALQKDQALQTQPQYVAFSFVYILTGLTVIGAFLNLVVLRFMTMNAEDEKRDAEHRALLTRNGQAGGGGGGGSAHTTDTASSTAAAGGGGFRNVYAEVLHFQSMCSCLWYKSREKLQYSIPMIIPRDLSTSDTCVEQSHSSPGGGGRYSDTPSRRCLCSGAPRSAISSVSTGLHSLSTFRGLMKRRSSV
# Paired box protein Pax-8, sequence (Q06710 whole entry): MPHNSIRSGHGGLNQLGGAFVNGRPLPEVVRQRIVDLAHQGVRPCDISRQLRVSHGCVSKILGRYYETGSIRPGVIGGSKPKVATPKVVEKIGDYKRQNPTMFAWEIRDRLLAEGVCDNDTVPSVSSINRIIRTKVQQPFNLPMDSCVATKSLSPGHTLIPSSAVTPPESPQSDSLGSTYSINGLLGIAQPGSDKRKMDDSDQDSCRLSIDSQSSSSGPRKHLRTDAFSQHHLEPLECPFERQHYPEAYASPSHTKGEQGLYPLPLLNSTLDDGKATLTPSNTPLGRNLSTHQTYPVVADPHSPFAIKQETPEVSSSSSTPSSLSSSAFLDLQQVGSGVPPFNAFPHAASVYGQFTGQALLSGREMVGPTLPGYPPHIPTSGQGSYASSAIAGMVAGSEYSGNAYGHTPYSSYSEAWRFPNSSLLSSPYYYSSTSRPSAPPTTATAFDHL
# 1-phosphatidylinositol 4,5-bisphosphate phosphodiesterase gamma-1, sequence (P19174 whole entry): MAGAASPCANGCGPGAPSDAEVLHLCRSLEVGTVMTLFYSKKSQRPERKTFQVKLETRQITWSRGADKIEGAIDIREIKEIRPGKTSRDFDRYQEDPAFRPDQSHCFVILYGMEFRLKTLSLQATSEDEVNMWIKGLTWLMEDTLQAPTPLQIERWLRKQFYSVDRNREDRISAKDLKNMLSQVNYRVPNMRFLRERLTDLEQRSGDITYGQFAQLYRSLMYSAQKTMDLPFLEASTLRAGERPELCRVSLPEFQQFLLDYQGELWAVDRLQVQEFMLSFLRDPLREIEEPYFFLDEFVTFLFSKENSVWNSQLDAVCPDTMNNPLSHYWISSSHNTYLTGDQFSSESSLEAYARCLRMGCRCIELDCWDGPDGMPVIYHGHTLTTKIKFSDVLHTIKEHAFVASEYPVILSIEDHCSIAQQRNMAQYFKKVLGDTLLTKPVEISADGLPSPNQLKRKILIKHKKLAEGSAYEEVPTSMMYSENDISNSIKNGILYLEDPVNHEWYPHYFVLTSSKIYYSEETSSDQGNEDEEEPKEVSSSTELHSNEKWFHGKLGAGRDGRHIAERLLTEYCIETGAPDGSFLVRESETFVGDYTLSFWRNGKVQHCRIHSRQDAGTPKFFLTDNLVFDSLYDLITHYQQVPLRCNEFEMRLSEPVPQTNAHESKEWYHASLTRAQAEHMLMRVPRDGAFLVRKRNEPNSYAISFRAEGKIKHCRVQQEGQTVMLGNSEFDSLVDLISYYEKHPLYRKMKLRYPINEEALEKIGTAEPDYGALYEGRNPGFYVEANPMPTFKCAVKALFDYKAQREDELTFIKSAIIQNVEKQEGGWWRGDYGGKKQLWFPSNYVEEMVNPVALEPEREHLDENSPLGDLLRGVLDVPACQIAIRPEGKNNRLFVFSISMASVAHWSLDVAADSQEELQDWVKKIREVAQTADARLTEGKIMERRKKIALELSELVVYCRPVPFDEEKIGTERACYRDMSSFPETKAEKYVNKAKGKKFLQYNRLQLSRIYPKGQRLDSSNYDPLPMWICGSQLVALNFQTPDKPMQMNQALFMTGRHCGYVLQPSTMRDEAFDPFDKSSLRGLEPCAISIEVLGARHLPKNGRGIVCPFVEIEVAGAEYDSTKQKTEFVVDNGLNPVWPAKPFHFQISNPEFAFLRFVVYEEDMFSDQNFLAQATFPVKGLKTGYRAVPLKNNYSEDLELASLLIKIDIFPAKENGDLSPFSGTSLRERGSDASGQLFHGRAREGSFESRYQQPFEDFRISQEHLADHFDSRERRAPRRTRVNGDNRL
# 1-phosphatidylinositol 4,5-bisphosphate phosphodiesterase beta-3, sequence (Q01970 whole entry): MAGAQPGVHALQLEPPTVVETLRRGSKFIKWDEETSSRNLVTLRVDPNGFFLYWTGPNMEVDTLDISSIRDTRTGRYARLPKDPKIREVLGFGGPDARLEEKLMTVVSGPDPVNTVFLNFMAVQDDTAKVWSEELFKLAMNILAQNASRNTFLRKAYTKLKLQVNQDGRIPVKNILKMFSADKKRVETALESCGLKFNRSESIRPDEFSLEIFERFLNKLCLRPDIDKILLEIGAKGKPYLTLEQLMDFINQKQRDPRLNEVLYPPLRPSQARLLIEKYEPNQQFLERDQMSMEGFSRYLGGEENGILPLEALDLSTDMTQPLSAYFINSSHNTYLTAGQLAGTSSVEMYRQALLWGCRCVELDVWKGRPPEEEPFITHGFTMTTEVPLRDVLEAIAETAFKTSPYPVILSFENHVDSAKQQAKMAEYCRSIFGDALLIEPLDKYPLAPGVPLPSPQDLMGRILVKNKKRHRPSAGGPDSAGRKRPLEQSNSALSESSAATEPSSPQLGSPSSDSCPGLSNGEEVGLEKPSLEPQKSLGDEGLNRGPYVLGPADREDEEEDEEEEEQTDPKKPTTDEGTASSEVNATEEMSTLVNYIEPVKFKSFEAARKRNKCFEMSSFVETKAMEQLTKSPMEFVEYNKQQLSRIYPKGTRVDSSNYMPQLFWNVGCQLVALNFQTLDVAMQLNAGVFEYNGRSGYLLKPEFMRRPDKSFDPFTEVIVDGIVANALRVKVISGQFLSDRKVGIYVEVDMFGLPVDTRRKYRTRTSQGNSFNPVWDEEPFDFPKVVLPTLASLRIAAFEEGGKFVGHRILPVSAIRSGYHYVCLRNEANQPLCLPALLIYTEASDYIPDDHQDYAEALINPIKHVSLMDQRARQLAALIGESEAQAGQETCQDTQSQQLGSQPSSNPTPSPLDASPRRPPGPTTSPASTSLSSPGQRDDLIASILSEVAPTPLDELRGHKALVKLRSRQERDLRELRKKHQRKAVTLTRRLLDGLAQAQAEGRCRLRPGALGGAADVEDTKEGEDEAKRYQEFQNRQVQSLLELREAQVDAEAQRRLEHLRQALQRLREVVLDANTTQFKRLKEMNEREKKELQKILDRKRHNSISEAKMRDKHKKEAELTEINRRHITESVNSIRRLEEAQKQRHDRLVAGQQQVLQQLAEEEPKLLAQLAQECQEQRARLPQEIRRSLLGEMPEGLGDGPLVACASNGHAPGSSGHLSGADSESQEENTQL
# fMet-Leu-Phe receptor, sequence (P21462 whole entry): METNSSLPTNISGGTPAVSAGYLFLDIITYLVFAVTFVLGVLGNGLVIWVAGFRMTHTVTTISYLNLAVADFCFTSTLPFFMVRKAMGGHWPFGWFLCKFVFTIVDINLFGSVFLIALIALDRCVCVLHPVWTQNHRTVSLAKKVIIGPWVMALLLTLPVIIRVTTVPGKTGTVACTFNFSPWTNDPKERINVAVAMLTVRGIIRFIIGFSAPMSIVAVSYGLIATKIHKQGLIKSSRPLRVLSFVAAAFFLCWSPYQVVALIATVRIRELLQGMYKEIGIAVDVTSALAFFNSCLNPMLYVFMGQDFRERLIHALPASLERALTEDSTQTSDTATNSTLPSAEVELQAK
# Kallikrein-7, sequence (P49862 whole entry): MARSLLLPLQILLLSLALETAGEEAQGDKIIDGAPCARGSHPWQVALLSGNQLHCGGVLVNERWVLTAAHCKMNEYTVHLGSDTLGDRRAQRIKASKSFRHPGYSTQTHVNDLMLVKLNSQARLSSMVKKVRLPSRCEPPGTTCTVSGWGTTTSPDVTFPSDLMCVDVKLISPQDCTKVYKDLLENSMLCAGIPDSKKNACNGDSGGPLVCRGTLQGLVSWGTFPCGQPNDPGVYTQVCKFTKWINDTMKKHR
smiles,measurement,setting,value
CCCCn1c(=O)n(CC(=O)Nc2ccc(OC)c(Cl)c2)c(=O)c2c1nc(CO)n2CCC,IC50,[1],> 123000 nM (inactive)
same,IC50,[2],> 123000 nM (inactive)
CCOc1ccc(C(=O)C2=C(O)C(=O)N(CC3CCCO3)C2c2ccco2)cc1 (stereo unspecified),Ki,fMet-Leu-Phe receptor,32000 nM (inactive)
Cc1cccc(NC(=O)c2sc3nc4c(c(-c5cccs5)c3c2N)CN(C)CC4)c1,IC50,[3],> 20000 nM (inactive)
COc1ccc(C)cc1NS(=O)(=O)c1ccc(-c2cnc(C3CC3)o2)cc1,AC50,[4],1490 nM (active)
same,AC50,[5],199 nM (active)
same,EC50,BJ [6],11100 nM (inconclusive)
same,AC50,[7],217 nM (active)
same,AC50,[8],3450 nM (active)
same,AC50,[9],3760 nM (active)
same,AC50,[10],337 nM (active)
same,EC50,BJ [11],990 nM (active)
same,EC50,[12],388 nM (active)
same,IC50,[13],> 80000 nM (inactive)
same,AC50,[14],612 nM (active)
same,AC50,[15],5690 nM (active)
same,AC50,[16],6580 nM (active)
same,AC50,Paired box protein Pax-8,734 nM (active)
same,AC50,[17],1770 nM (active)
same,EC50,BJ [18],208 nM (active)
same,EC50,[19],430 nM (active)
same,AC50,[20],8910 nM (active)
same,EC50,BJ [21],< 104 nM (active)
same,AC50,[22],1830 nM (active)
same,AC50,[23],118 nM (active)
Cc1nc2ccccc2c(=O)n1NC(=O)c1ccc(Cl)c([N+](=O)[O-])c1,AC50,[24],16800 nM (active)
COc1ccc(-c2noc(CCC(=O)N3CCC(c4cc(C)ccc4C)CC3)n2)cc1,IC50,[25],> 67500 nM (inactive)
same,EC50,[26],> 67500 nM (inactive)
COc1ccc(S(=O)(=O)Nc2ccc3c(c2)CC(=O)N([C@H](C)CO)C[C@H](C)[C@H](CN(C)Cc2ccc(C(=O)Nc4ccccc4N)cc2)O3)cc1,AC50,[27],3190 nM (active)
same,AC50,[28],29700 nM (active)
same,AC50,[29],24600 nM (active)
same,AC50,[30],23600 nM (active)
CC(C)(C)OC(=O)NCCOCCOCCOc1ccc(N(C(=O)CCl)C(C(=O)NCCc2ccccc2)c2cccs2)cc1Cl (stereo unspecified),AC50,[31],177 nM (active)
same,AC50,[32],675 nM (active)
same,AC50,[33],126 nM (active)
same,AC50,[34],21200 nM (active)
same,AC50,[35],738 nM (active)
same,AC50,[36],21400 nM (active)
same,AC50,[37],643 nM (active)
same,AC50,[38],1790 nM (active)
same,AC50,[39],1450 nM (active)
same,AC50,[40],492 nM (active)
same,AC50,[41],156 nM (active)
COc1ccc(CCNc2c3ccccc3nc3ccccc23)cc1,IC50,[42],1100 nM (active)
COc1cccc(CN2CC(C(=O)NCCc3cn4cccnc4n3)CCC2=O)c1 (stereo unspecified),EC50,Kallikrein-7,23900 nM (inactive)
CCOc1ccccc1NC(=O)c1cccc(NC(=O)C2CCOC2)c1 (stereo unspecified),IC50,[43],1330 nM (active)
